Experimental data published in PubChem BioAssay (NCI).
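Briefly, cells in 96-well plates were exposed to five compound concentrations for 48 h, and endpoints were estimated by linear interpolation. Definition used: TGI = concentration required for complete inhibition of growth.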

Key:
Assay in all cases: NCI tumour cell line growth inhibition, 48 h
786-0 renal = system: 786-0 renal
A498 renal = system: A498 renal
A549 NSCLC = system: A549 NSCLC
ACHN renal = system: ACHN renal
BT-549 breast = system: BT-549 breast
CAKI-1 renal = system: CAKI-1 renal
CCRF-CEM leukemia = system: CCRF-CEM leukemia
COLO 205 colon = system: COLO 205 colon
DLD-1 colon = system: DLD-1 colon
DMS 114 small cell lung = system: DMS 114 small cell lung
DMS 273 small cell lung = system: DMS 273 small cell lung
DU-145 prostate = system: DU-145 prostate
EKVX NSCLC = system: EKVX NSCLC
HCC-2998 colon = system: HCC-2998 colon
HCT-116 colon = system: HCT-116 colon
HCT-15 colon = system: HCT-15 colon
HL-60(TB) leukemia = system: HL-60(TB) leukemia
HOP-18 NSCLC = system: HOP-18 NSCLC
HOP-62 NSCLC = system: HOP-62 NSCLC
HOP-92 NSCLC = system: HOP-92 NSCLC
HS 578T breast = system: HS 578T breast
HT29 colon = system: HT29 colon
IGROV1 ovarian = system: IGROV1 ovarian
K-562 leukemia = system: K-562 leukemia
KM12 colon = system: KM12 colon
KM20L2 colon = system: KM20L2 colon
LOX IMVI melanoma = system: LOX IMVI melanoma
LXFL 529 NSCLC = system: LXFL 529 NSCLC
M14 melanoma = system: M14 melanoma
M19-MEL melanoma = system: M19-MEL melanoma
MALME-3M melanoma = system: MALME-3M melanoma
MCF7 breast = system: MCF7 breast
MDA-MB-231 breast = system: MDA-MB-231 breast
MDA-MB-435 = system: MDA-MB-435
MDA-N = system: MDA-N
MOLT-4 leukemia = system: MOLT-4 leukemia
NCI-H226 lung = system: NCI-H226 lung
NCI-H23 lung = system: NCI-H23 lung
NCI-H460 lung = system: NCI-H460 lung
NCI-H522 lung = system: NCI-H522 lung
NCI/ADR-RES ovarian = system: NCI/ADR-RES ovarian
OVCAR-3 ovarian = system: OVCAR-3 ovarian
OVCAR-4 ovarian = system: OVCAR-4 ovarian
OVCAR-5 ovarian = system: OVCAR-5 ovarian
OVCAR-8 ovarian = system: OVCAR-8 ovarian
PC-3 prostate = system: PC-3 prostate
RPMI-8226 leukemia = system: RPMI-8226 leukemia
RXF 393 renal = system: RXF 393 renal
RXF-631 renal = system: RXF-631 renal
SF-268 CNS = system: SF-268 CNS
SF-295 CNS = system: SF-295 CNS
SF-539 CNS = system: SF-539 CNS
SK-MEL-2 melanoma = system: SK-MEL-2 melanoma
SK-MEL-28 melanoma = system: SK-MEL-28 melanoma
SK-MEL-5 melanoma = system: SK-MEL-5 melanoma
SK-OV-3 ovarian = system: SK-OV-3 ovarian
SN12C renal = system: SN12C renal
SNB-19 CNS = system: SNB-19 CNS
SNB-75 CNS = system: SNB-75 CNS
SNB-78 CNS = system: SNB-78 CNS
SR leukemia = system: SR leukemia
SW-620 colon = system: SW-620 colon
T-47D breast = system: T-47D breast
TK-10 renal = system: TK-10 renal
U251 CNS = system: U251 CNS
UACC-257 melanoma = system: UACC-257 melanoma
UACC-62 melanoma = system: UACC-62 melanoma
UO-31 renal = system: UO-31 renal
XF 498 CNS = system: XF 498 CNS

CC(=O)NC1COC(COC(=O)CCCCCCCCCCNC(=O)c2ccc([N+](=O)[O-])c3c(=O)c4ccccc4[nH]c23)C(O)C1OC(C)C(=O)NC(C(=O)NC(CCC(N)=O)C(=O)OCc1ccccc1)C(C)C (centres undefined)
TGI (786-0 renal): > 58.6 µM
TGI (A498 renal): 47.7 µM
TGI (A549 NSCLC): 71.9 µM
TGI (ACHN renal): 39.4 µM
TGI (BT-549 breast): > 83.1 µM
TGI (CAKI-1 renal): 23.4 µM
TGI (CCRF-CEM leukemia): 62.7 µM
TGI (COLO 205 colon): 41.2 µM
TGI (DLD-1 colon): 10.1 µM
TGI (DMS 114 small cell lung): 30.4 µM
TGI (DMS 273 small cell lung): 27.3 µM
TGI (DU-145 prostate): 12.3 µM
TGI (EKVX NSCLC): 27.8 µM
TGI (HCC-2998 colon): 14.3 µM
TGI (HCT-116 colon): 42.7 µM
TGI (HCT-15 colon): 50.2 µM
TGI (HL-60(TB) leukemia): 6.72 µM
TGI (HOP-18 NSCLC): 43.9 µM
TGI (HOP-62 NSCLC): 24.4 µM
TGI (HOP-92 NSCLC): 31.5 µM
TGI (HS 578T breast): 17.6 µM
TGI (HT29 colon): 22.2 µM
TGI (IGROV1 ovarian): 18.3 µM
TGI (K-562 leukemia): 54.2 µM
TGI (KM12 colon): 11.6 µM
TGI (KM20L2 colon): 33.5 µM
TGI (LOX IMVI melanoma): 30.1 µM
TGI (LXFL 529 NSCLC): > 60.6 µM
TGI (M14 melanoma): 66.3 µM
TGI (M19-MEL melanoma): 10.7 µM
TGI (MALME-3M melanoma): > 83.8 µM
TGI (MCF7 breast): 14.8 µM
TGI (MDA-MB-231 breast): > 100 µM
TGI (MDA-MB-435): > 100 µM
TGI (MDA-N): 75 µM
TGI (MOLT-4 leukemia): 61.3 µM
TGI (NCI-H226 lung): 85.5 µM
TGI (NCI-H23 lung): 27.3 µM
TGI (NCI-H460 lung): 39.7 µM
TGI (NCI-H522 lung): 35.4 µM
TGI (NCI/ADR-RES ovarian): > 94.5 µM
TGI (OVCAR-3 ovarian): 9.57 µM
TGI (OVCAR-4 ovarian): 30.3 µM
TGI (OVCAR-5 ovarian): > 81.5 µM
TGI (OVCAR-8 ovarian): 44.1 µM
TGI (PC-3 prostate): 26.4 µM
TGI (RPMI-8226 leukemia): 23.1 µM
TGI (RXF 393 renal): 23.2 µM
TGI (RXF-631 renal): > 100 µM
TGI (SF-268 CNS): 32.8 µM
TGI (SF-295 CNS): 42.7 µM
TGI (SF-539 CNS): 58.3 µM
TGI (SK-MEL-2 melanoma): 28.7 µM
TGI (SK-MEL-28 melanoma): 41.7 µM
TGI (SK-MEL-5 melanoma): 57.9 µM
TGI (SK-OV-3 ovarian): 78.8 µM
TGI (SN12C renal): > 92.6 µM
TGI (SNB-19 CNS): 18.5 µM
TGI (SNB-75 CNS): 55.6 µM
TGI (SNB-78 CNS): > 22.8 µM
TGI (SR leukemia): 46.5 µM
TGI (SW-620 colon): > 72.8 µM
TGI (T-47D breast): 13 µM
TGI (TK-10 renal): 54.4 µM
TGI (U251 CNS): 27.9 µM
TGI (UACC-257 melanoma): 38.6 µM
TGI (UACC-62 melanoma): 58.9 µM
TGI (UO-31 renal): 19.1 µM
TGI (XF 498 CNS): 34.8 µM
